Test results from the NIST ThermoML archive (doi:10.1016/j.fluid.2005.07.009).

Tests used:
[1] = molar heat capacity at constant pressure; conditions: 101.33 kPa, Small sample (50 mg) DSC
[2] = Molar enthalpy of transition or fusion; conditions: Crystal; DSC
[3] = Crystal; DTA

CCCCCCCCCCO [decan-1-ol]
[1]
Conditions	molar heat capacity at constant pressure [J/K/mol]
215.12 K, Crystal	224.54
216.09 K, Crystal	227.81
217.28 K, Crystal	228.07
218.46 K, Crystal	228.68
219.05 K, Crystal	228.9
219.59 K, Crystal	229.05
222.22 K, Crystal	229.19
222.81 K, Crystal	230.27
223.03 K, Crystal	230.39
226.41 K, Crystal	231.18
227.05 K, Crystal	232.61
229.62 K, Crystal	232.81
230.15 K, Crystal	233.54
231.71 K, Crystal	234.37
232.3 K, Crystal	234.76
233.74 K, Crystal	235.5
234.54 K, Crystal	235.92
235.82 K, Crystal	237.25
236.3 K, Crystal	237.29
237.11 K, Crystal	238.88
238.28 K, Crystal	239.81
239.94 K, Crystal	240.28
240.47 K, Crystal	240.35
241.16 K, Crystal	241
242.71 K, Crystal	241.58
244.15 K, Crystal	244.94
246.13 K, Crystal	245.49
248.85 K, Crystal	245.75
249.22 K, Crystal	246.47
250.88 K, Crystal	247.17
251.14 K, Crystal	247.6
252.58 K, Crystal	250.51
253.49 K, Crystal	252.9
284.18 K, Liquid	357.16
285.11 K, Liquid	357.65
286.23 K, Liquid	359.66
287.17 K, Liquid	360.07
288.21 K, Liquid	361.72
289.63 K, Liquid	363.32
290.29 K, Liquid	363.87
291.08 K, Liquid	364.63
292.13 K, Liquid	366.29
293.23 K, Liquid	366.99
294.29 K, Liquid	368.16
295.69 K, Liquid	369.19
296.43 K, Liquid	370.09
297.49 K, Liquid	370.33
298.55 K, Liquid	373
299.51 K, Liquid	374.14
300.21 K, Liquid	375.31
301.18 K, Liquid	375.74
302.45 K, Liquid	377.89
304.22 K, Liquid	380.22
305.31 K, Liquid	381.17
306.42 K, Liquid	382.5
307.18 K, Liquid	383.77
308.14 K, Liquid	384.86

Conditions	Molar enthalpy of transition or fusion [kcal/mol]	Triple point temperature [K]
[2]	7.5	–
[3]	–	278.67
